“Also recorded” adds a separate entry of the source. Non-standard residues stand in square brackets, D forms with d. Residues, ends and D or L forms follow the SMILES beside them. No end group written: not given here. Sar = CNCC(=O)O
Experiments:
Aβ1-40 [1] = molecular target: T1, Aβ1-40 (Homo sapiens, UniProt P05067); test: Thioflavine-T aggregation assay, Aβ1-40 aggregated in the presence of compound; format: biochemical
T1 construct: made in house; host or cells: chemical solid-phase peptide synthesis (L-amino acids), RP-HPLC purified
Protocol: (§1) Peptoid modified derivatives of the KLVFFA (SEQ ID NO: 4) sequence were tested using Thioflavine-T aggregation assay to determine whether or not they are capable of forming fibrils themselves. […] In these treatment experiments, 100 μM Aβ40 or Aβ42 was mixed with 1-100 μM of the investigated compound and incubated up to 14 days. […] They were incubated alone or in the presence of peptoid modified derivatives of KLVFFA (SEQ ID NO: 4) sequence at concentrations of 1-100 μM. In addition, peptoid modified derivatives of KLVFFA (SEQ ID NO: 4) sequence were incubated alone as indicated above at the concentration of 100 μM. At the indicated intervals, samples containing 15 μg of incubated peptides were added to 1 mL of 50 mM/L glycine, pH 9.2 and 2 μM/L of Thioflavin-T (Sigma Chemical, Co.; St. Louis, Mo.). Fluorescence was measured at excitation 435 nm and emission 485 nm in a Hitachi F-2000 fluorescence spectrophotometer. A time scan of fluorescence was performed and three values after the decay reached a plateau (280, 290, 300 seconds) were averaged. The background fluorescence of 40 μl of Tris buffer added to 2 μM/L of Thioflavin-T solution was subtracted. Samples were run in duplicate. Differences in amount of fibrils formed by different peptides at particular time points were evaluated by one-way ANOVA followed by Tukey post hoc test.

[2] = Thioflavine-T aggregation assay, compound incubated alone (own fibril formation); format: physicochemical; conditions: compound alone at 100 μM
Protocol: as §1

Aβ1-40 [3] = molecular target: T1, Aβ1-40; test: Oligomerization assay (glutaraldehyde cross-linking, Western blot, densitometry); format: biochemical; conditions: 100 μM Aβ1-40 with 10 μM compound (10:1 Aβ:inhibitor), 4° C., 24 h
Protocol: Autoradiography films were converted into 8 bit grayscale digital files using a Epson Perfection 4990 scanner (Epson America; Long Beach, Calif.) and Adobe Photoshop CS4 (Adobe Systems; San Jose, Calif.) and saved in a TIF format with a resolution of 600 dpi. Densitometric analysis of Western and dot-blot signals was performed using NIH Image J software v 1.42 (Bethesda, Md.) as previously described (Pankiewicz et al., 2006. Eur. J. Neurosci. 23, 2635-47; Sadowski et al., 2009. Neurobiol Dis; 34, 267-78).
The rationale is that Aβ oligomeric assemblies are particularly toxic to synaptic components and impair neurotransmission. […] GKLVFNmgA (SEQ ID NO: 310:1 Aβ:inhibitor ratio). Prior to electrophoresis, glutaraldehyde (0.4 mM final concentration) was added to prevent disassembly of complexes. Samples were immediately subjected to electrophoresis in non-reducing condition, Western-transfer, and detection with a mixture of 4G8 and 6E10 anti-Aβ Mabs.

[4] = tested on: primary hippocampal neurons; test: Immunocytochemistry and quantification of synaptic protein expression in neurons exposed to Aβ40; format: cell-based, C57bL/6 mice
Protocol: P0-P1 pups of C57bL/6 mice were killed by decapitation and brains were removed in aseptic conditions. To establish cultures of primary hippocampal neurons the hippocampi were dissected from both hemispheres under AmScope stereoscopic microscope (AmScope, Chino, Calif.). Fragments of tissue were placed in the ice-cold Ca^2+ and Mg^2+ free Hank's balanced salt solution (HBSS) and gently cut further into fine pieces which were then treated with 0.05% trypsin in HBSS for 10 min at 37° C. to obtain cell suspension. Following addition of 0.1% type-I-S trypsin inhibitor and 0.05% DNase I, the cell suspension was centrifuged at 500×g for 30 sec. The resulting pellet was triturated, centrifuged again at 500×g for 5 min and resuspended in the minimal essential medium (MEM) supplemented with heat-inactivated 10% fetal bovine serum (FBS), 0.5 mM glutamine, streptomycin (50 μg/ml) and penicillin (50 U/ml). The cell suspension was then filtered through a 70-μm mesh, and the cells were counted using hematocytometer (Hausser Scientific, Horsham, Pa.). The cells were seeded on poly-L-lysine coated 12-well plates. For biochemical analysis 5×10^5 cells were seeded directly on the bottom of each well whereas for immunohistochemistry a removable, poly-L-lysine coated round coverslip was placed on the bottom of the well and the number of seeded cells was reduced to 1×10^5 per well. The neurons were allowed to adhere to the surface for four hours and then the medium was replaced with the serum-free Neurobasal medium containing 2% B27 supplement, 0.5 mM glutamine, streptomycin (50 μg/ml) and penicillin (50 U/ml). At three days in vitro (DIV) 5 μM of cytosine-β-D-arabinoside (Ara C) was added for 48 hr to inhibit division of non-neuronal cells. At 7 DIV one well from each preparation of primary hippocampal neurons was randomly selected to determine the purity of the culture. This was done by calculating the ratio of cells immunostained against microtubule-associated protein 2 (MAP2), which is a neuronal specific marker against all cells stained with 4′,6-diamidino-2-phenylindole (DAPI) nucleic acid stain.
Monomerized Aβ40 peptides were diluted in cell culture media and added to neuronal monocultures for 24 or 72 hr.

[5] = tested on: primary hippocampal neurons; test: Accumulation of aggregated FITC labeled Aβ1-40 on the surface of neurons; format: cell-based, C57bL/6 mice; conditions: 18 DIV neurons, FITC labeled Aβ1-40, treated with compound
Protocol: P0-P1 pups of C57bL/6 mice were killed by decapitation and brains were removed in aseptic conditions. To establish cultures of primary hippocampal neurons the hippocampi were dissected from both hemispheres under AmScope stereoscopic microscope (AmScope, Chino, Calif.). Fragments of tissue were placed in the ice-cold Ca^2+ and Mg^2+ free Hank's balanced salt solution (HBSS) and gently cut further into fine pieces which were then treated with 0.05% trypsin in HBSS for 10 min at 37° C. to obtain cell suspension. Following addition of 0.1% type-I-S trypsin inhibitor and 0.05% DNase I, the cell suspension was centrifuged at 500×g for 30 sec. […] The cell suspension was then filtered through a 70-μm mesh, and the cells were counted using hematocytometer (Hausser Scientific, Horsham, Pa.). […]
Coverslip inserts covered by the primary hippocampal neuro^ns were immersed three times in PBS at 37° C., and then in 80% ice-cold methanol for 10 min to fix the neurons, and washed again three times in PBS. […] Biotinylated secondary antibodies (1:1,000) followed by Cy3 conjugated streptavidine (1:500) were used to detected binding of primary Abs to their antigens. […] Immunostained neurons were analyzed under 80i Nikon fluorescent microscope (Nikon Corp. Tokyo, Japan). […]

[6] = tested on: primary hippocampal neurons; test: Intraneuronal Aβ accumulation (Western blot of neuronal lysates, densitometry); format: cell-based, C57bL/6 mice; conditions: 10 μM Aβ40 with or without compound, p<0.01
Protocol: P0-P1 pups of C57bL/6 mice were killed by decapitation and brains were removed in aseptic conditions. To establish cultures of primary hippocampal neurons the hippocampi were dissected from both hemispheres under AmScope stereoscopic microscope (AmScope, Chino, Calif.). Fragments of tissue were placed in the ice-cold Ca^2+ and Mg^2+ free Hank's balanced salt solution (HBSS) and gently cut further into fine pieces which were then treated with 0.05% trypsin in HBSS for 10 min at 37° C. to obtain cell suspension. Following addition of 0.1% type-I-S trypsin inhibitor and 0.05% DNase I, the cell suspension was centrifuged at 500×g for 30 sec. The resulting pellet was triturated, centrifuged again at 500×g for 5 min and resuspended in the minimal essential medium (MEM) supplemented with heat-inactivated 10% fetal bovine serum (FBS), 0.5 mM glutamine, streptomycin (50 μg/ml) and penicillin (50 U/ml). The cell suspension was then filtered through a 70-μm mesh, and the cells were counted using hematocytometer (Hausser Scientific, Horsham, Pa.). The cells were seeded on poly-L-lysine coated 12-well plates. For biochemical analysis 5×10^5 cells were seeded directly on the bottom of each well whereas for immunohistochemistry a removable, poly-L-lysine coated round coverslip was placed on the bottom of the well and the number of seeded cells was reduced to 1×10^5 per well. […]

[7] = tested on: eAβ1-x in brain interstitial fluid (ISF); test: In vivo microdialysis of brain interstitial fluid eAβ in AD transgenic mice; set-up: species or system APPSW/PS1L166P AD transgenic mice; conditions: 100 μM compound by reverse microdialysis into hippocampal CA1
Protocol: Mice were anesthetized with an intraperitoneal injection of Ketamine (50 mg/kg) and Xylazine (10 mg/kg). An MBR-10 guide cannula was stereotactically implanted into the right hippocampus (bregma −3.1 mm, 2.4 mm lateral, 12° angle). Four hours later mice were anesthetized again for the insertion of a BR-4 microdialysis probe with 38 kDa molecular weight cutoff (MWCO) membrane (Cirrito et al., 2008. 2008. Neuron; 58, 42-51) which was introduced through the implanted guide cannula. The probe was positioned so that the microdialysis membrane was almost entirely embedded in the strata radiatum and lacunosum-moleculare of the CA1 hippocampal sector (FIG. 8A). […]
eAβ level in the ISF dialyzate was determined using sandwich ELISA specific for human Aβ1-x. […] Absorbance was read on the Epoch Microplate Spectrophotometer (BioTek Instruments, Inc. Winooski, Vt.). Following background subtraction, absorbance values from serially diluted synthetic Aβ samples were used to generate a standard curve in GraphPad Prism v5.02 (GraphPad Software, Inc., San Diego) using a non-linear curve-fitting algorithm. eAβ concentration in dialysate samples was determined by comparing their absorbance values against the standard curve. […]

[8] = In vivo pharmacokinetic studies in rats
[9] = tested on: SK-N-SH human neuroblastoma cells; test: MTT toxicity assay; conditions: four day MTT cytotoxicity assay
Protocol: SK-N-SH cells were plated at 10,000 cells/100 μl per well in flat-bottom, 96-well microtiter plates and incubated with 1-100 μmol/L concentrations of tested peptides for two days after which cell viability was assessed using a metabolic assay, which is based on cleavage of the yellow tetrazolium salt (MTT) to purple formazan crystals by viable cells. The MTT assay (Roche Molecular Biochemicals, Indianapolis, Ind.) was performed according to the manufacturer's instructions.

[10] = 18 DIV neurons, 10 μM Aβ40 plus 5 μM compound, 72 hr

T1 sequence (P05067 672-711): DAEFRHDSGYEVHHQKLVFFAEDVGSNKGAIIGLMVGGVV

Molecule	inhibitory effect on the aggregation of Aβ1-40 (Aβ1-40 [1]; 1 μM compound, 100 μM Aβ1-40 (1:100 compound:Aβ ratio), p<0.001)	dose dependent effect on aggregation of Aβ1-40 (Aβ1-40 [1]; 100 μM Aβ1-40, 1-100 μM compound)	fibril formation by the compound itself [2]	reduction of the amount of Aβ oligomers (densitometric analysis) (Aβ1-40 [3])	NR1 NMDA receptor subunit positive densities, % of the control [4, 10]	PSD-95 positive densities, % of the control [4, 10]	synaptophysin positive densities, % of the control [4, 10]	effect of compound alone on the expression of NR1, synaptophysin and PSD-95 ([4]; neurons treated with compound alone, no Aβ)	accumulation of aggregated Aβ1-40 on the surface of neurons [5]	less Aβ accumulated in neurons after six hr of exposure ([6]; 6 hr)	less Aβ accumulated in neurons after 24 hr of exposure ([6]; 24 hr)	hour after the infusion onset from which the increase in eAβ was observed [7]	blood brain barrier (BBB) penetration [8]	detection in the cerebrospinal fluid (CSF) ([8]; following intravenous administration)	level in plasma after intranasal delivery ([8]; intranasal)	level in plasma following oral delivery ([8]; oral)	half-life ([8]; rat, in vivo)	concentration at which toxicity was exhibited in MTT assay [9]
CC(C)CC(NC(=O)C(CCCCN)NC(=O)CN)C(=O)NC(C(=O)NC(Cc1ccccc1)C(=O)N(C)CC(=O)NC(C)C(N)=O)C(C)C (stereo not drawn) [GKLVFNmgA] (H-GKLVF[Sar]A-NH2; configuration not given here)	strong inhibitory effect	strong dose dependent effect	did not form fibrils itself; also recorded: does not form fibrils itself	61.3%	83 % of the control	82.3 % of the control	84.5 % of the control	no significant effect	Reduction in the number of AB aggregates; also recorded: Reduced accumulation	29.8%	49.3%	seventh	good	can be detected	High level	Lesser level	< 2 h	–
GKLVFFA-NH2 [GKLVFFA]	–	–	–	–	–	–	–	–	–	–	–	–	–	–	–	–	–	100 µM

Reference: patent US9364449B2, “Peptoid and synthetic oligomers, pharmaceutical compositions and methods of using same” (New York University, priority 2011, dated 2016)
